Legend:
Experiment in all cases: Field test, activity against bugs on treated host plants
Format in all cases: in vivo
[1] = test system: Leptocorisa corbetti (Leaf-footed bug); settings: crop Rice; rate 50 ppm (the 1st table r9); field plots, spray
Description: (§1) Host plants (such as rice, wheat, and cabbage) were treated with 50, 150 or 300 ppm of a compound of formula I. Treatments were diluted in water and applied at 400 to 600 liters/hectare to experimental plots using standard application equipment (such as a backpack sprayer). Each treatment was replicated 3 times and comprised an area of approximately 30 square meters. Pre-treatment evaluations of the number of live insects per plant were made one day prior to first treatment. Post-treatment evaluations were made at 5 to 7 day intervals. Field studies were conducted under ambient conditions during normal growing season.

[2] = test system: Stenotus rubrovittatus (Sorghum plant bug); settings: crop Rice; rate 50 ppm (the 1st table r4); field plots, spray
Description: as §1

[3] = test system: Halticus bracteatus (Garden fleahopper); settings: crop Alfalfa; rate 300 ppm (the 1st table r11); field plots, spray
Description: as §1

[4] = test system: Trigonotylus coelestialum (Rice leaf bug); settings: crop Rice; rate 50 ppm (the 1st table r3); field plots, spray
Description: as §1

[5] = test system: Cletus trigonus (Slender rice bug); settings: crop Rice; rate 50 ppm (the 1st table r14); field plots, spray
Description: as §1

[6] = test system: Euschistus spp (Stink bug spp.); settings: crop Rice; rate 300 ppm (the 1st table r12); field plots, spray
Description: as §1

[7] = test system: Nezara antennata (Common green stink bug); settings: crop Rice; rate 300 ppm (the 1st table r6); field plots, spray
Description: as §1

[8] = test system: Lagynotomus elongatus (Brown rice stink bug); settings: crop Rice; rate 150 ppm (the 1st table r10); field plots, spray
Description: as §1

[9] = test system: Eurydema ornatum (Cabbage bug); settings: crop Cabbage; rate 50 ppm (the 1st table r13); field plots, spray
Description: as §1

[10] = test system: Paromius exiguus; settings: crop Rice; rate 300 ppm (the 1st table r5); field plots, spray
Description: as §1

[11] = test system: Lygus hesperus (Western plant bug); settings: crop Alfalfa; rate 100 ppm (the 1st table r8); field plots, spray
Description: as §1, with “Host plants (such as rice, wheat, and cabbage) were treated with 50, 150 or 300 ppm of a compound of formula I.” left out

Measured: control

CCNC(=NNc1c(Cl)cc(C(F)(F)F)cc1Cl)C1(C)CC1(Cl)Cl (stereo not drawn) [N-ethyl-2,2-dichloro-1-methylcyclopropane-carboxamide, 2-(2,6-dichloro-α,α,α-trifluoro-p-tolyl)hydrazone]
over 75%: all assays above
